{"source": "patent US11524012B1", "about": "“Quinolone analogs and their salts, compositions, and method for their use” (Senhwa Biosciences, Inc., priority 2018, dated 2022)", "assay": "Stability study of lyophilized Compound I with mannitol (Method A / Method B samples)", "format": "physicochemical", "details": "Method B sample", "description": "[…] Each 30 mL Type I, clear glass sample vial with 20 mm Freeze Dry Stoppers (Flurotech™ coated) contained 150 mg of Compound I.\nAt each time point, a vial was removed from the stored condition and reconstituted with 10 mL of D5W and analyzed by HPLC method as discussed in Example 5 at 1 month, 2 months, 3 months, and/or 6 months. In Tables 18-18e, RRT matches the Compounds as shown below.\nSample Preparation—Method A: 10% Mannitol solution was prepared by weighing 200 g±1.0 g of mannitol into glass beaker, adding approximately 1500 mL of WFI (water for injection) to the beaker and stirring until mannitol was dissolved. The mannitol solution was transferred to a 2 L volumetric flask and made to volume with WFI, then poured back to the original beaker to sir and mix further. 1M HCl solution was prepared by adding 16.4 mL of HCl (37%) to a 200 mL volumetric flask containing approximately 100 mL of WFI, adding WFI to make 200 mL in volume, and inverting to mix the prepared solution.\nTo a tared 2 L Schott bottle containing a magnetic stirrer and wrapped in aluminum foil, 1020 g±1.0 g of the 10% mannitol solution was added. Then, 58.4 g±0.05 g of the 1M HCl solution was added to the 2 L Schott bottle and stirred for approximately 10 minutes. The solution prepared in the 2 L Schott bottle was purged with nitrogen which was continued throughout the manufacturing process. 30.22 g of Compound I (free base) was weighed then added to the 2 L Schott bottle containing 10% mannitol solution and 1 M HCl solution with continual magnetic stirring. The container used to weigh Compound I was rinsed with 3×10 mL of WFI and added to the Schott bottle. After Compound I dissolved (approximately 40 minutes), additional 650 g of WFI was added to the Schott bottle and the solution was stirred for approximately 10 minutes. The pH of the Compound I solution (in Schott bottle) was measured then adjusted to pH 4.5±0.1 using 1 M HCl solution. After each addition of 1 M HCl solution, the solution was stirred for several minutes prior to verifying the pH. Once the pH was adjusted, nitrogen purging was stopped. The pH adjusted Compound I solution was further diluted with WFI to a target weight of 2040 g±1.0 g and stirred.\nThe final solution (pH adjusted and diluted) was filtered (chain including PVD Fmembrane filter 0.45 μm and 0.22 μm; peristaltic filtration pump by Watson Marlow) in the Bigneat and the bottle containing the filtered solution was sealed. The filtered solution was pumped (Watson Marlow Flexicon PF6-B pump; 100 RPM) into 30 mL Schott Clear Glass vials (10.0 mL filtered solution each). The glass vials were partially stoppered with 20 mm Freeze Dry Stopper Flurotec (Daikyo Seiko) one vial at a time with sterilized utensils inside a fume hood (Envair B101+1.5R) and placed on freeze dryer trays. The freeze dryer trays were transferred into freeze dry chamber and vial probe was positioned (Lyostar II; FTS Kinetics). Lyophilization was performed using the lyophilization cycle listed below. After lyophilization cycle finished, the vials were back filled with N2 and the stopper was placed in situ, wiped down with isopropanol in the fume hood once removed from the freeze dryer, reconciled, then crimped. Seven vials out of 186 sample vials placed under the lyophilization cycle had smashed in the freeze dryer.\nSample Preparation—Method B (dissolved oxygen content ≤1 ppm): 2 L WFI was poured into a Schott bottled and degassed for 30 minutes with N2 until dissolved oxygen content was ≤1 ppm (dissolved oxygen meter and probe; Mettler Toledo). 10% Mannitol solution was prepared by adding […] of mannitol and 1000 mL of degassed WFI to a tared 2 L Schott bottle containing a magnetic stirrer and wrapped in aluminum foil. To the Schott bottle containing mannitol, 15 mL of 2M HCl was added and stirred for approximately 10 minutes. The resulting solution was sparged with N2 while stirring until dissolved oxygen content was ≤1 ppm (approx. 30 min). […]", "key": {"[1]": {"details": "−20° C., time not printed (2nd block, col 1)"}, "[2]": {"details": "−20° C., time not printed (2nd block, col 2)"}, "[3]": {"details": "−20° C., time not printed (2nd block, col 3)"}, "[4]": {"details": "−20° C., time not printed (2nd block, col 4)"}}}
{"smiles": "Cc1cnc(CNC(=O)c2c(=O)c3ccc(N4CCCN(C)CC4)nc3n3c2sc2ccccc23)cn1", "note": "[Compound I, 2-(4-Methyl-[1,4]diazepan-1-yl)-5-oxo-5H-7-thia-1,11b-diaza-benzo[c]fluorene-6-carboxylic acid (5-methyl-pyrazin-2-ylmethyl)-amide]", "values": [{"measurement": "Related Substances RRT 0.88", "setting": "25° C./60% RH, 24 months", "value": 0.05, "unit": "%"}, {"measurement": "Related Substances RRT 1.05", "setting": "25° C./60% RH, 24 months", "value": 0.16, "unit": "%"}, {"measurement": "Related Substances RRT 1.06", "setting": "25° C./60% RH, 24 months", "value": 0.17, "unit": "%"}, {"measurement": "Related Substances Total", "setting": "25° C./60% RH, 24 months", "value": "Total: 0.4%"}, {"measurement": "Water Content USP<921 Method 1c>", "setting": "25° C./60% RH, 24 months", "value": 1.33, "unit": "%"}, {"measurement": "pH (USP<791>)", "setting": "25° C./60% RH, 24 months", "value": 4.4}, {"measurement": "Appearance", "setting": "25° C./60% RH, Initial", "value": "White"}, {"measurement": "Appearance (Reconstituted Solution)", "setting": "25° C./60% RH, Initial", "value": "Clear, colorless"}, {"measurement": "Compound I by HPLC assay", "setting": "25° C./60% RH, Initial", "value": 100.2, "unit": "%"}, {"measurement": "Related Substances RRT 0.96", "setting": "25° C./60% RH, Initial", "value": 0.05, "unit": "%"}, {"measurement": "Related Substances RRT 1.04", "setting": "25° C./60% RH, Initial", "value": 0.05, "unit": "%"}, {"measurement": "Related Substances RRT 1.06", "setting": "25° C./60% RH, Initial", "value": 0.17, "unit": "%"}, {"measurement": "Related Substances RRT 1.08", "setting": "25° C./60% RH, Initial", "value": 0.06, "unit": "%"}, {"measurement": "Related Substances Total", "setting": "25° C./60% RH, Initial", "value": "Total: 0.3%"}, {"measurement": "Water Content USP<921 Method 1c>", "setting": "25° C./60% RH, Initial", "value": 1.12, "unit": "%"}, {"measurement": "pH (USP<791>)", "setting": "25° C./60% RH, Initial", "value": 4.6}, {"measurement": "Appearance", "setting": "−20° C., 1 month", "value": "White powder"}, {"measurement": "Appearance (Reconstituted Solution)", "setting": "−20° C., 1 month", "value": "Clear, colorless"}, {"measurement": "Compound I by HPLC assay", "setting": "−20° C., 1 month", "value": 100.9, "unit": "%"}, {"measurement": "Reconstitution Time", "setting": "−20° C., 1 month", "value": 65, "unit": "s"}, {"measurement": "Related Substances RRT 1.06", "setting": "−20° C., 1 month", "value": "RRT 1.06: 0.16%"}, {"measurement": "Related Substances RRT 1.08", "setting": "−20° C., 1 month", "value": "RRT 1.08: 0.06%"}, {"measurement": "Related Substances Total", "setting": "−20° C., 1 month", "value": "Total: 0.2%"}, {"measurement": "Water Content USP<921 Method 1c>", "setting": "−20° C., 1 month", "value": 1.13, "unit": "%"}, {"measurement": "pH (USP<791>)", "setting": "−20° C., 1 month", "value": 4.4}, {"measurement": "Appearance", "setting": "−20° C., 3 months", "value": "Off-white powder"}, {"measurement": "Appearance (Reconstituted Solution)", "setting": "−20° C., 3 months", "value": "Clear, colorless"}, {"measurement": "Compound I by HPLC assay", "setting": "−20° C., 3 months", "value": 99.5, "unit": "%"}, {"measurement": "Related Substances RRT 1.04", "setting": "−20° C., 3 months", "value": "RRT 1.04: 0.08%"}, {"measurement": "Related Substances RRT 1.05", "setting": "−20° C., 3 months", "value": "RRT 1.05: 0.18%"}, {"measurement": "Related Substances Total", "setting": "−20° C., 3 months", "value": "Total: 0.3%"}, {"measurement": "Water Content USP<921 Method 1c>", "setting": "−20° C., 3 months", "value": 1.33, "unit": "%"}, {"measurement": "pH (USP<791>)", "setting": "−20° C., 3 months", "value": 4.4}, {"measurement": "Appearance", "setting": "−20° C., 6 months", "value": "Off-white powder"}, {"measurement": "Appearance (Reconstituted Solution)", "setting": "−20° C., 6 months", "value": "Clear, colorless"}, {"measurement": "Compound I by HPLC assay", "setting": "−20° C., 6 months", "value": 99.7, "unit": "%"}, {"measurement": "Related Substances RRT 1.05", "setting": "−20° C., 6 months", "value": "RRT 1.05: 0.13%"}, {"measurement": "Related Substances Total", "setting": "−20° C., 6 months", "value": "Total: 0.1%"}, {"measurement": "Water Content USP<921 Method 1c>", "setting": "−20° C., 6 months", "value": 1.24, "unit": "%"}, {"measurement": "pH (USP<791>)", "setting": "−20° C., 6 months", "value": 4.5}, {"measurement": "Appearance", "setting": "−20° C., Initial", "value": "White powder"}, {"measurement": "Appearance (Reconstituted Solution)", "setting": "−20° C., Initial", "value": "Clear, colorless"}, {"measurement": "Compound I by HPLC assay", "setting": "−20° C., Initial", "value": 100.2, "unit": "%"}, {"measurement": "Related Substances RRT 0.96", "setting": "−20° C., Initial", "value": "RRT 0.96: 0.05%"}, {"measurement": "Related Substances RRT 1.04", "setting": "−20° C., Initial", "value": "RRT 1.04: 0.05%"}, {"measurement": "Related Substances RRT 1.06", "setting": "−20° C., Initial", "value": "RRT 1.06: 0.17%"}, {"measurement": "Related Substances RRT 1.08", "setting": "−20° C., Initial", "value": "RRT 1.08: 0.06%"}, {"measurement": "Related Substances Total", "setting": "−20° C., Initial", "value": "Total:0.3%"}, {"measurement": "Water Content USP<921 Method 1c>", "setting": "−20° C., Initial", "value": 1.12, "unit": "%"}, {"measurement": "pH (USP<791>)", "setting": "−20° C., Initial", "value": 4.6}, {"measurement": "Appearance", "setting": "[1]", "value": "Off-white powder"}, {"measurement": "Appearance (Reconstituted Solution)", "setting": "[1]", "value": "Clear, colorless"}, {"measurement": "Compound I by HPLC assay", "setting": "[1]", "value": 100.8, "unit": "%"}, {"measurement": "Related Substances RRT 1.05", "setting": "[1]", "value": "RRT 1.05: 0.13%"}, {"measurement": "Related Substances Total", "setting": "[1]", "value": "Total: 0.1%"}, {"measurement": "Water Content USP<921 Method 1c>", "setting": "[1]", "value": 1.30, "unit": "%"}, {"measurement": "pH (USP<791>)", "setting": "[1]", "value": 4.6}, {"measurement": "Appearance", "setting": "[2]", "value": "Off-white powder"}, {"measurement": "Appearance (Reconstituted Solution)", "setting": "[2]", "value": "Clear, colorless"}, {"measurement": "Compound I by HPLC assay", "setting": "[2]", "value": 101.9, "unit": "%"}, {"measurement": "Related Substances RRT 1.05", "setting": "[2]", "value": "RRT 1.05: 0.13%"}, {"measurement": "Related Substances Total", "setting": "[2]", "value": "Total: 0.1%"}, {"measurement": "Water Content USP<921 Method 1c>", "setting": "[2]", "value": 1.29, "unit": "%"}, {"measurement": "pH (USP<791>)", "setting": "[2]", "value": 4.5}, {"measurement": "Appearance", "setting": "[3]", "value": "Off-white powder"}, {"measurement": "Appearance (Reconstituted Solution)", "setting": "[3]", "value": "Clear, colorless"}, {"measurement": "Compound I by HPLC assay", "setting": "[3]", "value": 101.3, "unit": "%"}, {"measurement": "Related Substances RRT 1.05", "setting": "[3]", "value": "RRT 1.05: 0.12%"}, {"measurement": "Related Substances Total", "setting": "[3]", "value": "Total: 0.1%"}, {"measurement": "Water Content USP<921 Method 1c>", "setting": "[3]", "value": 1.10, "unit": "%"}, {"measurement": "pH (USP<791>)", "setting": "[3]", "value": 4.5}, {"measurement": "Appearance", "setting": "[4]", "value": "Off-white powder"}, {"measurement": "Appearance (Reconstituted Solution)", "setting": "[4]", "value": "Clear, colorless"}, {"measurement": "Compound I by HPLC assay", "setting": "[4]", "value": 98.1, "unit": "%"}, {"measurement": "Related Substances RRT 1.05", "setting": "[4]", "value": "RRT 1.05: 0.10%"}, {"measurement": "Related Substances Total", "setting": "[4]", "value": "Total: 0.1%"}, {"measurement": "Water Content USP<921 Method 1c>", "setting": "[4]", "value": 1.10, "unit": "%"}, {"measurement": "pH (USP<791>)", "setting": "[4]", "value": 4.4}]}
